Measured values: patent US8227406B2, “Antimicrobial peptides” (Dermagen AB, priority 2006, dated 2012)

How the values were obtained:
[1] = system: Eschericia coli ATCC25922; test: Radial diffusion assay (RDA), E. coli; assay type: cell-based, Escherichia coli; settings: Table 1b; 10 mM Tris Hcl (pH 7.4)
Description: (§1) Peptides. Peptides were from Sigma-Genosys, generated by a peptide synthesis platform (PEPscreen®, Custom Peptide Libraries, SigmaGenosys). Yield was ˜1-6 mg, and peptide length 20 amino acids. MALDI-ToF Mass Spectrometry was perfomed on these peptides. Average Crude Purity of 20mers was ˜60%. Peptides were supplied lyophilized and in a 96-well tube rack. Prior to biological testing the PEPscreen peptides were diluted in dH2O (5 mM stock), and stored at −20 C. This stock solution was used for the subsequent experiments.
(§2) Eschericia coli ATCC25922, Staphylococcus aureus ATCC29213, and the fungal isolate Candida albicans ATCC90028 were obtained from the Department of Bacteriology, Lund University Hospital.
(§3) Radial diffusion assays (RDA) were performed essentially as described earlier (Lehrer, R. I., Rosenman, M., Harwig, S. S., Jackson, R. & Eisenhauer, P. (1991) Ultrasensitive assays for endogenous antimicrobial polypeptides, J Immunol Methods. 137, 167-73). Briefly, bacteria (E. coli, S. aureus) or fungi (C. albicans) were grown to midlogarithmic phase in 10 ml of full-strength (3% w/v) trypticase soy broth (TSB) (Becton-Dickinson, Cockeysville, Md.). The microorganisms were washed once with 10 mM Tris, pH 7.4. 4×10^6 bacterial cfu or 1×10^5 fungal cfu was added to 5 ml of the underlay agarose gel, consisting of 0.03% (w/v) TSB, 1% (w/v) low-electroendoosmosistype (Low-EEO) agarose (Sigma, St Louise Mo.) and a final concentration of 0.02% (v/v) Tween 20 (Sigma). The underlay was poured into a Ø 85 mm petri dish. After agarose solidified, 4 mm-diameter wells were punched and 6 μl of test sample was added to each well. Plates were incubated at 37° C. for 3 hours to allow diffusion of the peptides. The underlay gel was then covered with 5 ml of molten overlay (6% TSB and 1% Low-EEO agarose in dH2O). Antimicrobial activity of a peptide is visualized as a clear zone around each well after 18-24 hours of incubation at 37° C. for bacteria and 28° C. for Candida albicans. Other examples of peptides that were screened and found to show an increased effect against the above mentioned microorgansism are listed below. Some of the results are found in table 1c showing the effects against C. albicans, table 1d E. coli and table 1e S. aureus.

[2] = system: Staphylococcus aureus ATCC29213; test: Radial diffusion assay (RDA), S. aureus; assay type: cell-based; settings: Table 1b; 10 mM Tris Hcl (pH 7.4)
Description: as §1, §2, §3

Row | Substance | RDA values (mm) E. coli ATCC 25922 [1] | RDA values (mm) S. aureus ATCC 29213 [2]
1 | WWWKN [Peptide T41] | 0.00 mm | 0.00 mm
2 | WWWKNKGKKN [Peptide T36] | 5.04 mm | 0.66 mm
3 | WWWKNKGK [Peptide T38] | 1.42 mm | 0.00 mm
4 | WWWKNKGKK [Peptide T37] | 3.28 mm | 0.11 mm
5 | WWW [Peptide T12] | 0.00 mm | 0.00 mm
6 | KKKKKKKKKKWWW [Peptide T47] | 7.48 mm | 4.46 mm
7 | KGKKNGKHWWW [Peptide T25] | 8.87 mm | 2.55 mm
8 | KNKGKKNGKH [Peptide T1] | 2.56 mm | 0.00 mm
9 | KKKKKKKKKWWW [Peptide T48] | 9.26 mm | 7.19 mm
10 | KKKKKKKKKK [Peptide T46] | 5.94 mm | 1.32 mm
11 | KKKKKKKWWW [Peptide T50] | 7.82 mm | 4.90 mm
12 | KKKWWW [Peptide T54] | 4.93 mm | 2.02 mm
13 | GKHWWW [Peptide T30] | 3.05 mm | 0.00 mm
14 | KNKGKKNGKHWWW [Peptide T2] | 8.90 mm | 4.23 mm
15 | KWWWWW [Peptide T22] | 2.18 mm | 0.00 mm
16 | KNGKHWWW [Peptide T28] | 4.99 mm | 0.00 mm

Row | Substance | RDA values (mm) E. coli ATCC 25922 [1] | RDA values (mm) S. aureus ATCC 29213 [2]
17 | WWWK [Peptide T42] | 0.00 mm | 0.00 mm
18 | KKKKKWWW [Peptide T52] | 9.01 mm | 3.43 mm
19 | SNSGSSNGSHWWW [Peptide T44] | 0.00 mm | 0.00 mm
20 | WWWKNKGKKNG [Peptide T35] | 1.57 mm | 0.00 mm
21 | WWWKNKG [Peptide T39] | 0.00 mm | 0.00 mm
22 | KNKGKKNGKHWWW [Peptide T23] | 8.65 mm | 3.26 mm
23 | KWWW [Peptide T56] | 4.48 mm | 0.75 mm
24 | KNKWWWWW [Peptide T20] | 4.22 mm | 0.55 mm
25 | KNKGKWWW [Peptide T7] | 6.84 mm | 0.00 mm
26 | GKKNGKHWWW [Peptide T26] | 7.47 mm | 1.76 mm
27 | KNKGKWWWWW [Peptide T18] | 8.21 mm | 1.82 mm
28 | WWWKNKGKKNGK [Peptide T34] | 4.94 mm | 0.43 mm
29 | NKGKKNGKHWWW [Peptide T24] | 8.44 mm | 2.41 mm
30 | DDDDDDDDDD [Peptide T59] | 0.00 mm | 0.00 mm
31 | WWWKNKGKKNGKH [Peptide T33] | 7.95 mm | 2.20 mm
